Assay results reported in patent publication US20140351963A1, “MiRNAs Useful to Reduce Lung Cancer Tumorigenesis and Chemotherapy Resistance and Related Compositions and Methods” (Ohio State Innovation Foundation, priority 2011, published 2014).

Tests used:
Calu-1 cells [1] = assay: Cell viability (MTS) and caspase 3/7 assays with gefitinib; format: cell-based, human; conditions: for Gefitinib sensitivity of transfected cells (caspase-3/7 and viability assays): Calu-1
Procedure: (§1) For detection of caspase 3/7 activity, cells were cultured in 96-well plates, in triplicate, treated with 5 μM, 10 μM or 15 μM gefitinig and analyzed using a Caspase-Glo 3/7 Assay kit (Promega) according to the manufacturer's instructions. Continuous variables are expressed as means±s.d. Cell viability was examined with 3-(4,5dimethylthiazol-2-yl)-2,5-dipheniltetrazolium bromide (MTS)-Cell Titer 96 AQueous One Solution Cell Proliferation Assay (Promega) according to the manufacturer's protocol. Metabolically active cells were detected by adding 20 μl of MTS to each well. After 1 h of incubation, the plates were analyzed in a Multilabel Counter (Bio-Rad Laboratories).

[2] = system: miR-30b, miR-30c, miR-221 and miR-222; assay: qRT-PCR of miRNA expression after drug treatment; format: cell-based, human; conditions: for miR-30b, miR-30c, miR-221 and miR-222 expression after gefitinib: 5 μM or 10 μM gefitinib; for miR-221, miR-222, miR-30b and miR-30c expression after gefitinib: 10 μM gefitinib, 24 h
Procedure: (§2) Real-time PCR was performed using a standard TaqMan PCR Kit protocol on an Applied Biosystems 7900HT Sequence Detection System (Applied Biosystems). The 10 pl PCR reaction included 0.67 pl RT product, 1 pl TaqMan Universal PCR Master Mix (Applied Biosystems), […]. The reactions were incubated in a 96-well plate at 95° C. for […], followed by 40 cycles of 95° C. for 15 s and 60° C. for 1 mM All reactions were run in triplicate. The threshold cycle (CT) is defined as the fractional cycle number at which the fluorescence passes the fixed threshold. The comparative CT method for relative quantization of gene expression (Applied Biosystems) was used to determine miRNA and genes expression levels. The y axis represents the 2^(−ΔCT), or the relative expression of the different miRs and genes. MiRs expression was calculated relative to U44 and U48 rRNA (for microRNAs) and to GAPDH (for genes). Experiments were carried out in triplicate for each data point, and data analysis was performed by using software (Bio-Rad).

miR-103 and miR-203 = assay: qRT-PCR of miRNA expression after drug treatment; format: cell-based, human; conditions: Calu-1; 1 and 3 μM, 24, 48 and 72 h; P<0.05
Procedure: as §2

phosphorylated ERKs = assay: Western blot of ERK phosphorylation after gefitinib; format: cell-based; conditions: 24 h; for Concentration of phosphorylated ERKs compared to untreated cells: 5 μM or 10 μM gefitinib; for ERKs phosphorylation after gefitinib: 5 or 10 μM gefitinib
Procedure: (§3) Total proteins from NSCLC were extracted with radioimmunoprecipitation assay (PIRA) buffer ([…], pH 7.5, 1% Triton, 0.1% SDS, 0.1% sodium deoxycholate and 1% Nonidet P40). Sample extract (50 μg) was resolved on 7.5-12% SDS-polyacriylamide gels (PAGS) using a mini-gel apparatus (Bio-Rad Laboratories) and transferred to Hybond-C extra nitrocellulose. Membranes were blocked for 1 h with 5% nonfat dry milk in Tris-buffered saline containing 0.05% Tween 20, incubated overnight with primary antibody, washed and incubated with secondary antibody, and visualized by chemiluminescence.
(§4) The following primary antibodies were used: Apaf-1, Snail, Slug (abcam), Src, Met, Dicer, Vimintin, E-cadherin, Zeb1, Zeb-2 (Santa Cruz), Bim, pErks, total Erks, pAkt, total Akt, GAPDH, Parp (cell signaling, Pkc-ε, (BD transduction lab), β-actin antibody, Fibronectin (Sigma). A secondary anti-rabbit or anti-mouse immunoglobulin G (IgG) antibody peroxidase conjugate (Chemicon) was used.

BIM and APAF-1 = assay: Western blot of BIM and APAF-1 protein; format: cell-based, human; conditions: 24 h; for BIM and APAF-1 protein after gefitinib: 5 μM or 10 μM gefitinib; for APAF-1 and BIM expression after gefitinib: 5 or 10 μM gefitinib
Procedure: as §3, §4

PC9 cells = assay: Cell viability (MTS) and caspase 3/7 assays with gefitinib; format: cell-based; conditions: PC9 EGFR mutant; even at low doses (0.1 μM), 24 h
Procedure: as §1

[3] = system: miR-21, miR-29a, miR-29c and miR-100; assay: qRT-PCR of miRNA expression after drug treatment; format: cell-based, human; conditions: 5 and 10 μM gefitinib
Procedure: as §2

Dicer = assay: Western blot of Dicer; format: cell-based; conditions: Calu-1
Procedure: as §3, §4

A549 cells [4] = assay: A549 xenograft in nude mice with gefitinib treatment; format: in vivo; conditions: for Tumor growth: nude mice injected s.c. with stably infected A549 cells, 35 days; for Sensitivity to gefitinib-induced apoptosis in vivo: nude mice, stably infected A549 cells, gefitinib 200 mg/kg oral gavage, 2 weeks
Procedure: A549 cells were stably infected with a control miRNA, miR-103 and miR-203 or with control inhibitor of miRNA or a lentiviral inhibitor of miR-221 and miR-30c (SBI). We injected 5×10^6 viable cells subcutaneously into the right flanks of 6-week-old male nude mice (Charles River Breeding Laboratories). Treatment was started 7 d after tumor cell inoculation. […] Tumor size was assessed twice per week using a digital caliper. Tumor volumes were determined by measuring the length (1) and the width (w) of the tumor and calculating the volume (V=lw^2/2). We killed the mice 35 days after injection. Statistical significance between the control and treated mice was evaluated using a Student's t test. Mouse experiments were conducted after approval by the institutional animal care and use committee at Ohio State University.
A549 cells were stably infected with the Human pre-microRNA Expression Construct Lenti-miR expression plasmid containing the full-length miR-103, miR-203 or the anti-miR-221, miR-30c and the GFP gene under the control of two different promoters (System Biosciences). An empty vector was used as control. Pre-miRs expression and control constructs were packaged with pPACKH1 Lentivector Packaging Plasmid mix (System Biosciences) in a 293TN packaging cell line. Viruses were concentrated using PEGit Virus Precipitation Solution, and titers were analyzed using the UltraRapid Lentiviral Titer Kit (System Biosciences). Infected cells were selected by FACS analysis (FACScalibur; BD Bioscience). Infection efficiency >90% was verified by fluorescent microscopy and confirmed by real-time PCR for miRs expression.

[5] = system: mesenchymal markers and E-cadherin; assay: Expression of epithelial and mesenchymal markers (immunofluorescence, immunoblot, qRT-PCR); format: cell-based, human; conditions: Calu-1
Procedure: Cells were grown on Lab-Tek II CC2 chamber slides (Nunc), fixed with 4% paraformaldehyde and permeabilized with 0.2% Triton X-100/PBS before blocking with 10% sheep serum (Caltag Laboratories). All the primary antibodies were from Abcam. Secondary antibodies were goat antibodies to mouse or rabbit coupled to Alexa 488 (Invitrogen). F-actin was stained by using a phalloidin reagent (Invitrogen). Cell nuclei were visualized with DAPI (Sigma). Slides were mounted with SlowFade Gold Antifade reagent (Invitrogen).
as §3, §2

NSCLCs = assay: Transwell migration assay; format: cell-based; conditions: 24 h
Procedure: Transwell insert chambers with an 8-μm porous membrane (Greiner Bio One) were used for the assay. Cells were washed three times with PBS and added to the top chamber in serum-free medium. The bottom chamber was filled with medium containing 10% FBS. Cells were incubated for 24 h at 37° C. in a 5% CO2 humidified incubator. To quantify migrating cells, cells in the top chamber were removed by using a cotton-tipped swab, and the migrated cells were fixed in PBS, 25% glutaraldehyde and stained with crystal violet stain, visualized under a phase-contrast microscope and photographed. Crystalviolet-stained cells were then solubilized in acetic acid and methanol (1:1), and absorbance was measured at 595 nm.

A549 cells [6] = assay: Cell-cycle analysis by flow cytometry; format: cell-based
Procedure: (§5) For cell-cycle analysis, cells were plated in 6 cm dishes, transfected as indicated in the figures, trypsinized, washed in PBS, and fixed with ice-cold 70% ethanol while vortexing. Cells were rehydrated in PBS and stained 30 min at RT with propidium iodide ([…] PI, 0.5 mg/ml RNase in PBS) prior to flow-cytometric analysis. Every experiment was repeated 5 times independently, with two replicas for each sample.

Calu-1 cells [7] = assay: Cell-cycle analysis by flow cytometry; format: cell-based, human
Procedure: as §5

PKC-ε and SRC = assay: Western blot of PKC-ε and SRC protein; format: cell-based, human
Procedure: as §3, §4

AKT/ERKs pathways = assay: Western blot of AKT/ERKs pathways after miRNA enforced expression; format: cell-based; conditions: A549; miRNA overexpression
Procedure: as §3, §4

[8] = SU11274 treated Calu-1 cells exposed to different concentrations of gefitinib, 24 h

Compound: Cc1[nH]c(/C=C2\C(=O)Nc3ccc(S(=O)(=O)N(C)c4cccc(Cl)c4)cc32)c(C)c1C(=O)N1CCN(C)CC1 [SU11274]
- Caspase-3/7 activity on exposure to gefitinib (Calu-1 cells [1]; [8]): increased
- Cell viability on exposure to gefitinib (Calu-1 cells [1]; [8]): decreased
- miR-30b/c and miR-221/miR-222 expression after SU11274 ([2]; Calu-1, 1 and 3 μM, 24, 48 and 72 h): down-regulation
- miR-103 and miR-203 expression after SU11274 (miR-103 and miR-203): increased

Compound: COc1cc2ncnc(Nc3ccc(F)c(Cl)c3)c2cc1OCCCN1CCOCC1 [gefitinib]
- Concentration of phosphorylated ERKs compared to untreated cells (phosphorylated ERKs; HCC827): markedly lower
- ERKs phosphorylation after gefitinib (phosphorylated ERKs; HCC827GR): did not change
- Concentration of phosphorylated ERKs compared to untreated cells (phosphorylated ERKs; PC9): markedly lower
- ERKs phosphorylation after gefitinib (phosphorylated ERKs; PC9GR): did not change
- BIM and APAF-1 protein after gefitinib (BIM and APAF-1; HCC827): increased amounts
- APAF-1 and BIM expression after gefitinib (BIM and APAF-1; HCC827GR): did not change
- BIM and APAF-1 protein after gefitinib (BIM and APAF-1; PC9): increased amounts
- APAF-1 and BIM expression after gefitinib (BIM and APAF-1; PC9GR): did not change
- Cell growth / viability relative to untreated controls (PC9 cells): significantly inhibited
- miR-30b, miR-30c, miR-221 and miR-222 expression after gefitinib ([2]; A549 gefitinib-resistant): does not decrease
- miR-30b, miR-30c, miR-221 and miR-222 expression after gefitinib ([2]; Calu-1 gefitinib-resistant): does not decrease
- miR-30b, miR-30c, miR-221 and miR-222 expression after gefitinib ([2]; HCC827): downregulation
- miR-221, miR-222, miR-30b and miR-30c expression after gefitinib ([2]; HCC827 GR): did not decrease
- miR-30b, miR-30c, miR-221 and miR-222 expression after gefitinib ([2]; PC9): downregulation
- miR-221, miR-222, miR-30b and miR-30c expression after gefitinib ([2]; PC9 GR): did not decrease
- miR-21, miR-29a, miR-29c and miR-100 expression after gefitinib ([3]; HCC827): downregulated
- Downregulation of miR-21, miR-29a, miR-29c and miR-100 after gefitinib ([3]; HCC827 GR): not observed
- miR-21, miR-29a, miR-29c and miR-100 expression after gefitinib ([3]; PC9): downregulated
- Downregulation of miR-21, miR-29a, miR-29c and miR-100 after gefitinib ([3]; PC9 GR): not observed

Compound: miR-103: synthetic miR-103 or lentiviral construct containing full-length miR-103; targets PKC-ε and Dicer (AGCAGCATTGTACAGGGCTATGA; listed as DNA, chemistry not given here)
- Gefitinib sensitivity of transfected cells (caspase-3/7 and viability assays) (Calu-1 cells [1]): increased the sensitivity
- Dicer level (Dicer): marked down-regulation
- Tumor growth (A549 cells [4]): marked inhibition
- Sensitivity to gefitinib-induced apoptosis in vivo (A549 cells [4]): increased sensitivity
- E-cadherin expression [5]: increased
- Expression of mesenchymal markers [5]: downregulation
- Migration reduced compared to controls (NSCLCs): about 60%
- Cell cycle distribution (G1 fraction; S and G2-M phases) (A549 cells [6]): increased G1 cell fraction
- Cell cycle distribution (G1 fraction; S and G2-M phases) (Calu-1 cells [7]): increased G1 cell fraction
- Concentrations of PKC-ε and SRC protein after enforced miRNA expression (PKC-ε and SRC): clearly reduced
- Phosphorylation of AKT, GSK3β and the ERKs (AKT/ERKs pathways): reduced phosphorylation

Compound: miR-203: synthetic miR-203 or lentiviral construct containing full-length miR-203; targets SRC (CTAGTGGTCCTAAACATTTCAC; listed as DNA, chemistry not given here)
- Gefitinib sensitivity of transfected cells (caspase-3/7 and viability assays) (Calu-1 cells [1]): increased the sensitivity
- Tumor growth (A549 cells [4]): marked inhibition
- Sensitivity to gefitinib-induced apoptosis in vivo (A549 cells [4]): increased sensitivity
- E-cadherin expression [5]: increased
- Expression of mesenchymal markers [5]: downregulation
- Migration reduced compared to controls (NSCLCs): about 60%
- Cell cycle distribution (G1 fraction; S and G2-M phases) (A549 cells [6]): increased G1 cell fraction
- Cell cycle distribution (G1 fraction; S and G2-M phases) (Calu-1 cells [7]): increased G1 cell fraction
- Concentrations of PKC-ε and SRC protein after enforced miRNA expression (PKC-ε and SRC): clearly reduced
- Phosphorylation of AKT, GSK3β and the ERKs (AKT/ERKs pathways): reduced phosphorylation
